Experimental data from patent publication US11225465B2, “Albicidin derivatives, their use and synthesis” (TECHNISCHE UNIVERSITÄT BERLIN, priority 2017, dated 2022).
≈ marks a conversion by molar mass, not a printed value.

Tests used:
Test in all cases: Microdilution assay, MIC
Assay type in all cases: cell-based
S. typhimurium TA100 = conditions: Salmonella enterica, 20 h, read-out: MIC S. typhimurium TA100
Procedure: (§1) The tests were performed using the micro dilution method.
(§2) The determination of MIC values was performed according to the ninth edition of the Approved Standard M07-A9 (CLSI. Methods for Dilution Antimicrobial Susceptibility Tests for Bacteria That Grow Aerobically; Approved Standard—Ninth Edition. CLSI document M07-A9. Wayne, Pa.: Clinical and Laboratory Standards Institute; 2012.)
(§3) The test was carried out for four different bacterial strains (E. coli DSM 1116 [gram negative], B. subtilis DSM 10 [gram positive], M. luteus DSM 1790 [gram positive], S. typhimurium TA100 [gram negative]). 20 μL of cryo stock of each strain were inoculated in 20 mL of LB media (Lysogeny broth: 10 g/L peptone, 5 g/L yeast extract, 5 g/L NaCl) followed by incubation over night at 37° C., 200 rpm. The test inoculum was adjusted by the 0.5 McFarland Standard (OD625 from 0.08 to 0.1). Within 15 min of preparation, the adjusted inoculum suspension was diluted in MHBII media (BBL T M Mueller-Hinton Broth II, Becton, Dickinson and Company, N.J./USA) so that each well contained approximately 5×10^5 CFU/mL in a final volume of 100 μL. 95 μL of the inoculum were applied per well and 5 μL of the (diluted) antibiotic substance were added.
(§4) Previously the dry antibiotic compounds were dissolved in DMSO (100%) with a concentration of 2560 μg/mL and the resulting stock solutions were further diluted in DMSO (100%). 5 μL of each antibiotic dilution were applied to the microdilution tray to reach final concentrations of 64 μg/mL to 0.008 μg/mL. One row of each well plate was left as a growth control without antibiotic substances and another row of the microdilution tray was used as sterility control (only MHB II-media). The antimicrobial effect of the solvent (DMSO) was tested by adding 5 μL DMSO to several wells without antibiotics.
(§5) Purity check and cell titer control were performed according to International Standard M07-A9 on Mueller-Hinton II Agar (Mueller Hinton II Broth, 15 g/L agar-agar).
(§6) Both microdilution trays and agar plates were incubated at 37° C. for 20 h and subsequently analyzed visually.

E. coli DSM 1116 = conditions: Escherichia coli, DSM1116, 20 h, read-out: MIC E. coli DSM1116
Procedure: as §1, §2, §3, §4, §5, §6

[1] = test system: Micrococcus luteus DSM1790; conditions: DSM1790, 20 h, read-out: MIC M. luteus DSM1790
Procedure: as §1, §2, §3, §4, §5, §6

Bacillus subtilis DSM10 = conditions: DSM10, 20 h, read-out: MIC B. subtilis DSM10
Procedure: as §1, §2, §3, §4, §5, §6

Compound | MIC (S. typhimurium TA100) | MIC (E. coli DSM 1116) | MIC [1] | MIC (Bacillus subtilis DSM10)
COc1c(NC(=O)c2ccc(NC(=O)c3ccc(NC(=O)[C@H](Cc4c[nH]cn4)NC(=O)c4ccc(NC(=O)/C(C)=C/c5ccc(O)cc5)cc4)cc3)c(OC)c2O)ccc(C(=O)O)c1O [Compound 1, L-His-albicidin] | 31 µg/mL (≈ 35.1 µM) | 63 µg/mL (≈ 71.3 µM) | 4000 µg/mL (≈ 4530 µM) | 500 µg/mL (≈ 566 µM)
COc1c(NC(=O)c2ccc(NC(=O)c3ccc(NC(=O)[C@H](CN(C)C)NC(=O)c4ccc(NC(=O)/C(C)=C/c5ccc(O)cc5)cc4)cc3)c(OC)c2O)ccc(C(=O)O)c1O [Compound 2, L-DMDAP-Albicidin] | 31 µg/mL (≈ 36 µM) | 125 µg/mL (≈ 145 µM) | 2000 µg/mL (≈ 2320 µM) | 125 µg/mL (≈ 145 µM)
COc1c(NC(=O)c2ccc(NC(=O)c3ccc(NC(=O)C(Cc4c[nH]nn4)NC(=O)c4ccc(NC(=O)/C(C)=C/c5ccc(O)cc5)cc4)cc3)c(OC)c2O)ccc(C(=O)O)c1O [Compound 3, L-Azahis-Albicidin] | ≤ 16 µg/mL | ≤ 16 µg/mL | 500 µg/mL (≈ 565 µM) | 125 µg/mL (≈ 141 µM)
COc1c(NC(=O)c2ccc(NC(=O)c3ccc(NC(=O)[C@@H](CN(C)C)NC(=O)c4ccc(NC(=O)/C(C)=C/c5ccc(O)cc5)cc4)cc3)c(OC)c2O)ccc(C(=O)O)c1O [Compound 16, D-DMDAP-Albicidin] | 250 µg/mL (≈ 290 µM) | 500 µg/mL (≈ 581 µM) | ≥ 8000 µg/mL | 1000 µg/mL (≈ 1160 µM)
